# Results as given in patent US9586951B2 (FUJIFILM Corporation, priority 2013, dated 2017).
# Target: T1, ATM (Homo sapiens, UniProt Q13315)
# T1 construct: detecting phosphorylation of Chk2 in a human non-small cell lung cancer cell line NCI-H460 (ATCC company); host or cells: NCI-H460 human non-small cell lung cancer cells
# Assay: ATM inhibition test (phosphorylation of Chk2 generated by ionizing radiation, AlphaScreen SureFire)
# Format: cell-based
# Details: phosphorylated Chk2 in NCI-H460 cells, ionizing radiation 8Gy, 1 hour after test compound treatment; read-out: ATM inhibitory activity
# Method in brief: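 NCI-H460 cells treated with compound for 1 hour, then irradiated with 8Gy and incubated 1 hour at 37° C. Phospho-Chk2 measured by AlphaScreen SureFire. Inhibition ratio calculated relative to untreated irradiated and non-irradiated wells.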
# T1 sequence (Q13315 whole entry): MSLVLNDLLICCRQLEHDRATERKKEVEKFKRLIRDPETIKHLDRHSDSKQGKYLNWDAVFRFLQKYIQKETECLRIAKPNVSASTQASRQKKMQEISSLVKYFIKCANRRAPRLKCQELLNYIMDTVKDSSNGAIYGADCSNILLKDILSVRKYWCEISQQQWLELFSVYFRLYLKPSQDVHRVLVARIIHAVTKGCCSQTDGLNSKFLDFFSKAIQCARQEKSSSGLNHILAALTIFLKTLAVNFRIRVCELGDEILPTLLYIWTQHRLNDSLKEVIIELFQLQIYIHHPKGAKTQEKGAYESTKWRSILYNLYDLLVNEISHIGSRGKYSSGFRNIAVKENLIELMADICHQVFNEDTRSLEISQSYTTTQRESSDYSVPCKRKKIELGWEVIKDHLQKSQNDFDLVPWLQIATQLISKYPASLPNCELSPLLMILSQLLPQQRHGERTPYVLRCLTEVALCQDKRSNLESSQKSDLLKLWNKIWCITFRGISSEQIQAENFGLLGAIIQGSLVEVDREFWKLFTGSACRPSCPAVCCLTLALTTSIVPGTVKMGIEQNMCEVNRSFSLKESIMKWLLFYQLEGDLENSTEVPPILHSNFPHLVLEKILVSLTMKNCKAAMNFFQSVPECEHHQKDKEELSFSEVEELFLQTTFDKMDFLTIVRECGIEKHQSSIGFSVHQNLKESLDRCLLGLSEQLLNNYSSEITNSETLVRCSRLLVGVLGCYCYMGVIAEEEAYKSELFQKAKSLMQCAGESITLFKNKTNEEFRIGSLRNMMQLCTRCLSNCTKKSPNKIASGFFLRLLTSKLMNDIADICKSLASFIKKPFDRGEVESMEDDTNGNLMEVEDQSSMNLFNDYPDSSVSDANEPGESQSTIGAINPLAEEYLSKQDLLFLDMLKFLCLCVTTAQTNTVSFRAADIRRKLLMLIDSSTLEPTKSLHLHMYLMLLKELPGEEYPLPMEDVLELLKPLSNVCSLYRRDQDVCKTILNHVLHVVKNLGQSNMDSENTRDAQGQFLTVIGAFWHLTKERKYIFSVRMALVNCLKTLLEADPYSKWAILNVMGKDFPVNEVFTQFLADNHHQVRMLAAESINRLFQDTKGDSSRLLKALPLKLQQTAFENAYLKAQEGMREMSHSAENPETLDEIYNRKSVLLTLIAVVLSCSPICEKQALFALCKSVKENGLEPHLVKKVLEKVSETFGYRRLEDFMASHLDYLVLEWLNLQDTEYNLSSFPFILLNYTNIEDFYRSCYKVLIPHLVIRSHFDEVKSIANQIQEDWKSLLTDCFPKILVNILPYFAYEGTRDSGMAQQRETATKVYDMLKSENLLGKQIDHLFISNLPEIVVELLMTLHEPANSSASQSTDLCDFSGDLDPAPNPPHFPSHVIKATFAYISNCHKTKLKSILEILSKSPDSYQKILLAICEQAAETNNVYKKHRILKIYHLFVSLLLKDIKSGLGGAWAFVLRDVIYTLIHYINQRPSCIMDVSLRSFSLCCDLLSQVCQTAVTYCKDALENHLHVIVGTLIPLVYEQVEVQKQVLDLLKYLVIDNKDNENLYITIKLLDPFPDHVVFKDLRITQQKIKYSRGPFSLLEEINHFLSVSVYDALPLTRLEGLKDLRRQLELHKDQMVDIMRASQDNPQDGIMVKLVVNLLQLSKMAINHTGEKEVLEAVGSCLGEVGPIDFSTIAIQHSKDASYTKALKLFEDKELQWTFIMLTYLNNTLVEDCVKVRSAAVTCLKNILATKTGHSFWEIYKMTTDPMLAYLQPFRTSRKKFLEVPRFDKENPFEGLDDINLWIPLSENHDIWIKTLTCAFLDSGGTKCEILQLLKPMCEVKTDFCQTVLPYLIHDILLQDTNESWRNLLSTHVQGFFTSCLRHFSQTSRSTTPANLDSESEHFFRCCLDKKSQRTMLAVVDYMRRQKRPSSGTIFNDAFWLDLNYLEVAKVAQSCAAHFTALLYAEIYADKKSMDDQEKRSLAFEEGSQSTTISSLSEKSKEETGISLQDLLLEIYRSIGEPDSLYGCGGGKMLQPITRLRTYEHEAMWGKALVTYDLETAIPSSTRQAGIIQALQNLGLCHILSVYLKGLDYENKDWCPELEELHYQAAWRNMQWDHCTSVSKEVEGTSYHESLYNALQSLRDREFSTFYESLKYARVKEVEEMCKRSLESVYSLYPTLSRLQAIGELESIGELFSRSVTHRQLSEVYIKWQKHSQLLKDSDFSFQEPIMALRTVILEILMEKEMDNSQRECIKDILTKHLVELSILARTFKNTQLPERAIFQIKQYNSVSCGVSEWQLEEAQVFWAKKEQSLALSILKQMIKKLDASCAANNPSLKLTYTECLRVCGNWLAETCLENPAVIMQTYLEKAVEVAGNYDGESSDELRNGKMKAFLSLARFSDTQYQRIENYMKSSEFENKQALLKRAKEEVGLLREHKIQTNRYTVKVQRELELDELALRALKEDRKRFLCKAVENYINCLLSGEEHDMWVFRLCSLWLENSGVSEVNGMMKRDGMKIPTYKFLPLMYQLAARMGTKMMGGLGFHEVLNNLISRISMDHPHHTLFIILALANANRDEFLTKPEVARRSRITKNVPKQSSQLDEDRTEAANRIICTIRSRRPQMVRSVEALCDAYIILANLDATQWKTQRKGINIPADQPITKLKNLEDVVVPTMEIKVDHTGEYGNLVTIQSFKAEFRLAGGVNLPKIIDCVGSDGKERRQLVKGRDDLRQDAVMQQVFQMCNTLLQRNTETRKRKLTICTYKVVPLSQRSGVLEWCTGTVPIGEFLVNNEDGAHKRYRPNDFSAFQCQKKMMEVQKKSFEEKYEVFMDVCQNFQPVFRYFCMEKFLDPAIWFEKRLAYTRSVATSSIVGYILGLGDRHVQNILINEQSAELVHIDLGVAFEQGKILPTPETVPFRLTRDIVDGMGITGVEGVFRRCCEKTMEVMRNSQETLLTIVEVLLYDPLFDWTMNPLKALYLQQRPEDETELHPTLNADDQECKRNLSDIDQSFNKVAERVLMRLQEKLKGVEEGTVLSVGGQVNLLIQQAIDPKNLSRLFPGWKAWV
row,IC50,Compound
1,0.1 to 0.5 µM,"CC[C@@H](C(C)Nc1ccc2c(c1)Sc1cccc(-c3cc(N4CCOCC4)cc(=O)[nH]3)c1S2)N1CCOCC1 (stereo partly drawn) [Example 1-21-3, 4-Morpholino-6-(7-(((3S)-3-morpholinopentan-2-yl)amino)thianthren-1-yl) pyridin-2(1H)-one]"
2,< 0.1 µM,"COCCN1CCC(C(Nc2ccc3c(c2)Sc2cccc(-c4cc(N5CCOCC5)cc(=O)[nH]4)c2S3)c2ccc(C)cn2)CC1 (centres unmarked) [Example 1-56-7, 6-(7-(((1-(2-Methoxyethyl)piperidin-4-yl)(5-methylpyridin-2-yl)methyl)amino)thianthren-1-yl)-4-morpholino pyridin-2(1H)-one]"
3,0.1 to 0.5 µM,"O=c1cc(N2CCOCC2)cc(-c2ccc(F)c3c2Oc2ccc(NCc4cncc(Cl)c4)cc2C3)[nH]1 [Example 2-44-3, 6-(7-(((5-Chloropyridin-3-yl)methyl)amino)-1-fluoro-9H-xanthen-4-yl)-4-morpholinopyridin-2(1H)-one]"
4,0.1 to 0.5 µM,"O=c1cc(N2CCOCC2)cc(-c2cccc3c2Oc2ccc(NCc4cccnc4)cc2C3)[nH]1 [Example 2-3-1, 4-Morpholino-6-(7-((pyridin-3-ylmethyl)amino)-9H-xanthen-4-yl)pyridin-2(1H)-one]"
5,0.5 to 2 µM,"CCC(CC)(Nc1ccc2c(c1)Sc1cccc(-c3cc(N4CCOCC4)cc(=O)[nH]3)c1S2)c1ccc(C)cn1 [Example 1-50-6, 6-(7-((3-(5-Methylpyridin-2-yl)pentan-3-yl)amino)thianthren-1-yl)-4-morpholino pyridin-2(1H)-one]"
6,0.1 to 0.5 µM,"CCC(CNc1ccc2c(c1)Sc1cccc(-c3cc(N4CCOCC4)cc(=O)[nH]3)c1S2)N1CCOCC1 (centres unmarked) [Example 1-9-1, 4-morpholino-6-(7-((2-morpholinobutyl)amino)thianthren-1-yl)pyridin-2(1H)-one]"
7,0.1 to 0.5 µM,"CNCCC(Nc1ccc2c(c1)Sc1cccc(-c3cc(N4CCOCC4)cc(=O)[nH]3)c1S2)c1cccc(C)n1 (centres unmarked) [Example 1-20-12, 6-(7-((3-(Methylamino)-1 (6-methyl pyridin-2-yl)propyl)amino)thianthren-1-yl)-4-morpholino pyridin-2 (1H)-one]"
8,0.5 to 2 µM,"O=c1cc(N2CCOCC2)cc(-c2cccc3c2Sc2ccc(NCCN4CCC(O)CC4)cc2S3)[nH]1 [Example 1-10-8, 6-(7-((2-(4-Hydroxypiperidin-1-yl)ethyl)amino)thianthren-1-yl)-4-morpholino pyridin-2(1H)-one]"
9,< 0.1 µM,"O=c1cc(N2CCOCC2)cc(-c2cccc3c2Sc2ccc(NC4CCN(Cc5cccnc5)C4)cc2S3)[nH]1 (centres unmarked) [Example 1-24-11, 4-Morpholino-6-(7-((1-(pyridin-3-ylmethyl)pyrrolidin-3-yl)amino)thianthren-1-yl)pyridin-2 (1H)-one]"
10,< 0.1 µM,"O=c1cc(N2CCOCC2)cc(-c2cccc3c2Sc2ccc(NCc4ccc(Cl)nc4)cc2S3)[nH]1 [Example 1-44-2, 6-(7-(((6-Chloropyridin-3-yl)methyl)amino)thianthren-1-yl)-4-morpholino pyridin-2(1H)-one]"
11,0.1 to 0.5 µM,"O=c1cc(N2CCOCC2)cc(-c2cccc3c2Oc2ccc(NC4CCN(Cc5ccc(OC6CCOCC6)nc5)CC4)cc2C3)[nH]1 [Example 2-28-21, 4-Morpholino-6-(7-((1-((6-((tetrahydro-2H-pyran-4-yl)oxy)pyridin-3-yl)methyl)piperidin-4-yl)amino)-9H-xanthen-4-yl)pyridin-2(1H)-one]"
12,0.1 to 0.5 µM,"O=c1cc(N2CCOCC2)cc(-c2cccc3c2Oc2ccc(NCc4cncc(-c5cccnc5)c4)cc2S3)[nH]1 [Example 4-4-10, 6-(8-(([3,3′-Bipyridin)-5-ylmethyl)amino)phenoxathiin-4-yl)-4-morpholino pyridin-2(1H)-one]"
13,0.1 to 0.5 µM,"O=c1cc(N2CCOCC2)cc(-c2cccc3c2Sc2ccc(NCc4cscn4)cc2S3)[nH]1 [Example 1-12-53, 4-Morpholino-6-(7-((thiazol-4-ylmethyl)amino)thianthren-1-yl)pyridin-2 (1H)-one]"
14,0.1 to 0.5 µM,"O=c1cc(N2CCOCC2)cc(-c2cccc3c2Sc2ccc(NCCN4CCS(=O)(=O)CC4)cc2S3)[nH]1 [Example 1-16-8, 6-(7-((2-(1,1-Dioxidethiomorpholino)ethyl)amino)thianthren-1-yl)-4-morpholinopyridin-2(1H)-one]"
15,< 0.1 µM,"Cc1ccc(C(CCN2CCN(C)CC2)Nc2ccc3c(c2)Sc2cccc(-c4cc(N5CCOCC5)cc(=O)[nH]4)c2S3)nc1 (single isomer, unassigned) [Example 10-3-1, 6-(7-((3-(4-Methylpiperazin-1-yl)-1-(5-methylpyridin-2-yl)propyl)amino)thianthren-1-yl)-4-morpholino pyridin-2 (1H)-one]"
16,< 0.1 µM,"COC1CN(CCC(Nc2ccc3c(c2)Sc2cccc(-c4cc(N5CCOCC5)cc(=O)[nH]4)c2S3)c2ccc(C)cn2)C1 (single isomer, unassigned) [Example 1-51-8, 6-(7-((3-(3-Methoxyazetidin-1-yl)-1-(5-methylpyridin-2-yl)propyl)amino)thianthren-1-yl)-4-morpholino pyridin-2 (1H)-one]"

row,IC50,Compound
1,0.1 to 0.5 µM,"COc1nccc(C(C)Nc2ccc3c(c2)Sc2cccc(-c4cc(N5CCOCC5)cc(=O)[nH]4)c2S3)n1 (centres unmarked) [Example 1-12-88, 6-(7-((1-(2-Methoxypyrimidin-4-yl)ethyl)amino)thianthren-1-yl)-4-morpholino pyridin-2(1H)-one]"
2,0.5 to 2 µM,"Cc1nccc(CNc2ccc3c(c2)Cc2cccc(-c4cc(N5CCOCC5)cc(=O)[nH]4)c2O3)n1 [Example 2-14-68, 6-(7-(((2-Methylpyrimidin-4-yl)methyl)amino)-9H-xanthen-4-yl)-4-morpholino pyridin-2(1H)-one]"
3,0.1 to 0.5 µM,"Cc1cncc(CNc2ccc3c(c2)Cc2cccc(-c4cc(N5CCOCC5)cc(=O)[nH]4)c2O3)c1 [Example 2-2-9, 6-(7-(((5-Methylpyridin-3-yl)methyl)amino)-9H-xanthen-4-yl)-4-morpholino pyridin-2(1H)-one]"
4,< 0.1 µM,"Cc1cnc(C(CCN(C)C)Nc2ccc3c(c2)Sc2cccc(-c4cc(=O)cc(N5CCOCC5)o4)c2S3)cn1 (single isomer, unassigned) [Example 10-8, 2-(7-((3-(dimethylamino)-1-(5-methylpyrazin-2-yl)propyl)amino)thianthren-1-yl)-6-morpholino-4H-pyran-4-one]"
5,0.1 to 0.5 µM,"O=c1cc(N2CCOCC2)cc(-c2cccc3c2Oc2ccc(NCc4cnc5c(c4)OCO5)cc2C3)[nH]1 [Example 2-2-30, 6-(7-(([1,3]Dioxolo[4,5-b]pyridin-6-ylmethyl)amino)-9H-xanthen-4-yl)-4-morpholino pyridin-2(1H)-one]"
6,0.5 to 2 µM,"CC(C)(C)OC(=O)N1CCC[C@H]1C(=O)Nc1ccc2c(c1)Cc1cccc(-c3cc(N4CCOCC4)cc(=O)[nH]3)c1O2 [Example 2-20-2, (S)-tert-butyl 2-((5-(4-morpholino-6-oxo-1,6-dihydropyridin-2-yl)-9H-xanthen-2-yl)carbamoyl)pyrrolidine-1-carboxylate]"
7,0.1 to 0.5 µM,"O=c1cc(N2CCOCC2)cc(-c2cccc3c2Oc2ccc(NCc4cncc(N5CCCC5)c4)cc2C3)[nH]1 [Example 2-2-63, 4-Morpholino-6-(7-(((5-(pyrrolidin-1-yl)pyridin-3-yl)methyl)amino)-9H-xanthen-4-yl)pyridin-2(1H)-one]"
8,< 0.1 µM,"Cc1cnc(C(CCN(C)CCF)Nc2ccc3c(c2)Sc2cccc(-c4cc(N5CCOCC5)cc(=O)[nH]4)c2S3)cn1 (single isomer, unassigned) [Example 10-3-6, 6-(7-((3-((2-Fluoroethyl) (methyl)amino)-1-(5-methylpyrazin-2-yl)propyl)amino)thianthren-1-yl)-4-morpholino pyridin-2(1H)-onc]"
9,0.1 to 0.5 µM,"Cc1cccc(C(Nc2ccc3c(c2)Sc2cccc(-c4cc(N5CCOCC5)cc(=O)[nH]4)c2S3)C2CCNC2)n1 (centres unmarked) [Example 1-20-14, 6-(7-(((6-Methylpyridin-2-yl)(pyrrolidin-3-yl)methyl)amino)thianthren-1-yl)-4-morpholino pyridin-2(1H)-one]"
10,0.5 to 2 µM,CN1CCN(C(=O)CNc2ccc3c(c2)Sc2cccc(-c4cc(N5CCOCC5)cc(=O)[nH]4)c2S3)CC1 [Example 1-18-3]
11,0.1 to 0.5 µM,"CCC(Nc1ccc2c(c1)Sc1cccc(-c3cc(N4CCOCC4)cc(=O)[nH]3)c1O2)c1cncc(OC)c1 (centres unmarked) [Example 4-4-27, 6-(8-((1-(5-Methoxypyridin-3-yl)propyl)amino)phenoxathiin-4-yl)-4-morpholino pyridin-2(1 H)-one]"
12,0.1 to 0.5 µM,"Cc1ccc(C2(Nc3ccc4c(c3)Sc3cccc(-c5cc(N6CCOCC6)cc(=O)[nH]5)c3S4)CCC2)nc1 [Example 1-50-3, 6-(7-((1-(5-Methylpyridin-2-yl)cyclobutyl)amino)thianthren-1-yl)-4-morpholino pyridin-2(1H)-one]"
13,0.1 to 0.5 µM,"CNCc1cccc(C(C)Nc2ccc3c(c2)Sc2cccc(-c4cc(N5CCOCC5)cc(=O)[nH]4)c2S3)n1 (centres unmarked) [Example 1-20-8, 6-(7-((1-(6-((Methylamino)methyl)pyridin-2-yl)ethyl)amino)thianthren-1-yl)-4-morpholino pyridin-2(1H)-one]"
14,0.1 to 0.5 µM,"Cn1cc(-c2cncc(CNc3ccc4c(c3)Sc3cccc(-c5cc(N6CCOCC6)cc(=O)[nH]5)c3S4)c2)cn1 [Example 1-12-22, 6-(7-(((5-(1-Methyl-1H-pyrazol-4-yl)pyridin-3-yl)methyl)amino)thianthren-1-yl)-4-morpholino pyridin-2 (1H)-one]"
15,< 0.1 µM,"Cc1ccc(C(Nc2ccc3c(c2)Sc2cccc(-c4cc(N5CCOCC5)cc(=O)[nH]4)c2S3)[C@@H]2CN(C)CCO2)nc1 (single isomer, unassigned) [Example 1-56-10]"
16,0.1 to 0.5 µM,"CC(Nc1ccc2c(c1)Cc1cccc(-c3cc(N4CCOCC4)cc(=O)[nH]3)c1O2)c1cccnc1 (racemic) [Example 2-11-1, 4-morpholino-6-(7-((1-(pyridin-3-yl)ethyl)amino)-9H-xanthen-4-yl)pyridin-2(1H)-one]"
